Measured values reported in ChEMBL document CHEMBL1909046, “DrugMatrix in vitro pharmacology data”.

Assays:
[1] = molecular target: C-C chemokine receptor type 5 (Homo sapiens, UniProt P51681); type: cell membranes, HEK293, Membrane; settings: hek293; note: in other assays of this panel Not Active means under 50% inhibition at 10 µM
Mu-type opioid receptor = Mu-type opioid receptor (Homo sapiens, UniProt P35372); test: DRUGMATRIX: Opiate mu (OP3, MOP) radioligand binding (ligand: [3H] Diprenorphine); type: cell membranes, CHO-K1, Membrane; settings: cho-k1; Not Active = under 50% inhibition at 10 µM
Chain of Mu-type opioid receptor (P35372 whole entry): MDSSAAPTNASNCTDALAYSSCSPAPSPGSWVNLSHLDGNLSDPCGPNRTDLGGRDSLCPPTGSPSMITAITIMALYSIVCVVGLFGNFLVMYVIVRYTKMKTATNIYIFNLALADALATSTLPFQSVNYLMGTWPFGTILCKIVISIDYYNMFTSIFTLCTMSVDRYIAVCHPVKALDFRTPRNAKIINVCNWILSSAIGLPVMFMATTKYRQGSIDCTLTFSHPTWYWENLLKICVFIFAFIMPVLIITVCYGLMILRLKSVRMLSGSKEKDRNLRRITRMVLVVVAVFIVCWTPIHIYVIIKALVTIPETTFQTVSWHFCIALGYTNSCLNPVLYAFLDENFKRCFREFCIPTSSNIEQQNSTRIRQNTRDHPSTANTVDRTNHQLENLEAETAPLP

[2] = DRUGMATRIX: Calcium Channel Type L, Dihydropyridine radioligand binding (ligand: [3H] Nitrendipine); type: cell membranes, Rattus norvegicus, Wistar, Cerebral cortex, Membrane; settings: Not Active = under 50% inhibition at 10 µM
Melanocortin receptor 5 = Melanocortin receptor 5 (Homo sapiens, UniProt P33032); type: cell membranes, HEK293, Membrane; settings: hek293; note: in other assays of this panel Not Active means under 50% inhibition at 10 µM
Chain of Melanocortin receptor 5 (P33032 whole entry): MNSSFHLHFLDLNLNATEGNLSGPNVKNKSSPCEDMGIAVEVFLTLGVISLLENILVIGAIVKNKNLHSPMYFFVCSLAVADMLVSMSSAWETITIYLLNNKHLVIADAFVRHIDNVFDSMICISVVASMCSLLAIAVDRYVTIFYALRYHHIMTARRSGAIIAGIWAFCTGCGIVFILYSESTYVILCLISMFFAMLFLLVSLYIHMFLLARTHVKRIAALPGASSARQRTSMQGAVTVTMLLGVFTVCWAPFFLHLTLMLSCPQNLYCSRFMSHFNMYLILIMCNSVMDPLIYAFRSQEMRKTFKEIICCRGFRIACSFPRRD

[3] = molecular target: T1, Nitric oxide synthase, inducible (Mus musculus, UniProt P29477); parameters: species or system Escherichia coli;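 note: inhibition of iNOS enzyme activity measured with L-arginine as substrate; in other assays of this panel Not Active means under 50% inhibition at 10 µM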
T1 sequence (P29477 whole entry): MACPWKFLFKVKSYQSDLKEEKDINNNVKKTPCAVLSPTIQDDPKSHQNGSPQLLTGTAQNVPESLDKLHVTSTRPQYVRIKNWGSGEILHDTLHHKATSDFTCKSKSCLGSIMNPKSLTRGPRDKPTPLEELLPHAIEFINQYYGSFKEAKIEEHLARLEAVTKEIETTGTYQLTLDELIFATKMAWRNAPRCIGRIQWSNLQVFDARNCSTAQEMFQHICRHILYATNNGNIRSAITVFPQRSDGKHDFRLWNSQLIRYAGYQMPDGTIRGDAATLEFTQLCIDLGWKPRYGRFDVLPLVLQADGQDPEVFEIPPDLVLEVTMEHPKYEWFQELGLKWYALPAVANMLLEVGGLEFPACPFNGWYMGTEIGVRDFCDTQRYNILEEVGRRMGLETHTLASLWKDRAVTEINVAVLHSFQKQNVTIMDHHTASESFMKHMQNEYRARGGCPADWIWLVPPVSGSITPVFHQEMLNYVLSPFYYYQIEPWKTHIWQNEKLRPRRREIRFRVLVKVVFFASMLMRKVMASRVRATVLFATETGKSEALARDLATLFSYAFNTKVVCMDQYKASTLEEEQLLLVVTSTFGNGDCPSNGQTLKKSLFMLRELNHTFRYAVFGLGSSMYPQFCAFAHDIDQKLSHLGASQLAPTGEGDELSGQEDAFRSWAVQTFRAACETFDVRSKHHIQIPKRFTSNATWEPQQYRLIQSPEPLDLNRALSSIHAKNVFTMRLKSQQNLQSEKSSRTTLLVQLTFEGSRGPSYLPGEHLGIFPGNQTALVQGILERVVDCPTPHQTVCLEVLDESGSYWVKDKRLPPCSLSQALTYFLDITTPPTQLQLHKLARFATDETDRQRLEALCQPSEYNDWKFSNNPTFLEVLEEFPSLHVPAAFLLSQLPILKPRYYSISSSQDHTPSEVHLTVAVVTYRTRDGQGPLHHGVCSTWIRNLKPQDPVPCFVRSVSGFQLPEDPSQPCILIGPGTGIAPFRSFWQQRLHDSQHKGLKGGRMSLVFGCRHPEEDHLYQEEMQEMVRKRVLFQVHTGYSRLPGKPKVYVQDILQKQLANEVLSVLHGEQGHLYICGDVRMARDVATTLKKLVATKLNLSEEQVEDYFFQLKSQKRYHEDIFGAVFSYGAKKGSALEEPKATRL

D(1A) dopamine receptor = D(1A) dopamine receptor (Homo sapiens, UniProt P21728); test: DRUGMATRIX: Dopamine D1 radioligand binding (ligand: [3H] SCH-23390); type: cell membranes, CHO, Membrane; settings: Not Active = under 50% inhibition at 10 µM
Chain of D(1A) dopamine receptor (P21728 whole entry): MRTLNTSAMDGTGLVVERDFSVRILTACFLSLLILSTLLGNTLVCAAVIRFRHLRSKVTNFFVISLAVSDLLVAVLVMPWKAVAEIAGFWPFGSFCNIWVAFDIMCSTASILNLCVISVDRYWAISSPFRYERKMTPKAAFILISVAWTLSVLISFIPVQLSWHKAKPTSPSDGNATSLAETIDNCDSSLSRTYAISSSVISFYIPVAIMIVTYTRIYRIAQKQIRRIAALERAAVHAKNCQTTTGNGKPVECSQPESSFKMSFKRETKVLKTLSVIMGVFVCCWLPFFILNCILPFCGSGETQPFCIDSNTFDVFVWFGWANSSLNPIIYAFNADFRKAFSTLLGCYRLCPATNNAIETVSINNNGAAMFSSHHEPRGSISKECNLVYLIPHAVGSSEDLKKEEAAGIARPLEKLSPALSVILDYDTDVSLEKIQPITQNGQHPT

[4] = molecular target: T2, Polyunsaturated fatty acid lipoxygenase ALOX15 (Oryctolagus cuniculus, UniProt P12530); test: biochemical; type: tissue-based, Reticulocytes;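 note: inhibition of 15-lipoxygenase enzyme activity measured with linoleic acid as the substrate; in other assays of this panel Not Active means under 50% inhibition at 10 µM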
T2 sequence (P12530 whole entry): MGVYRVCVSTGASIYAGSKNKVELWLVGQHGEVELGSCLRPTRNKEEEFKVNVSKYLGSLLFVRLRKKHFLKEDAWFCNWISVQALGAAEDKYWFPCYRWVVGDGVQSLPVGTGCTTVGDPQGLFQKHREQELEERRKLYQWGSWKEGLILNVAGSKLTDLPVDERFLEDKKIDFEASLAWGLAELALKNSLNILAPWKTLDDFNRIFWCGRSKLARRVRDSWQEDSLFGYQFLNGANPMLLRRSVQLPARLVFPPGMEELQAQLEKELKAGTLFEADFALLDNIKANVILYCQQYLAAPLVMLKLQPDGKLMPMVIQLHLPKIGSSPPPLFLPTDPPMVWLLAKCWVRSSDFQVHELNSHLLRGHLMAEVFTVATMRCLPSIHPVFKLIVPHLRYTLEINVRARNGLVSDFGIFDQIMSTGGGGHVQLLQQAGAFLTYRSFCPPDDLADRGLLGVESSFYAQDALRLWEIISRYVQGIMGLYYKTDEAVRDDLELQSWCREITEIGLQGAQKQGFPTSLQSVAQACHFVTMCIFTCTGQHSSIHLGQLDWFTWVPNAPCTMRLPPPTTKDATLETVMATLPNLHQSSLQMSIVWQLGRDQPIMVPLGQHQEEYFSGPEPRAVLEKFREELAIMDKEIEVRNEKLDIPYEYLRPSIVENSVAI

Chain of C-C chemokine receptor type 5 (P51681 whole entry): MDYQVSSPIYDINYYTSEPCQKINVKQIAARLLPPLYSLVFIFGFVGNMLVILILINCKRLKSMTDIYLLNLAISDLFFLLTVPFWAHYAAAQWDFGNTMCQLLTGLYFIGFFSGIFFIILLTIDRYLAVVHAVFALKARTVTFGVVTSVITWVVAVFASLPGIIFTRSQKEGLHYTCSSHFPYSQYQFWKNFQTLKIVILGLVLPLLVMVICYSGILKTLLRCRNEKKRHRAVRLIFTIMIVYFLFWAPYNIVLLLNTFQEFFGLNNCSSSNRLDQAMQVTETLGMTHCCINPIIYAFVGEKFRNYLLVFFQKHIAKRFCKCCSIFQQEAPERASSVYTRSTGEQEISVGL

| Compound | IC50 [1] | IC50 (Mu-type opioid receptor) | IC50 [2] | Ki [2] | IC50 (Melanocortin receptor 5) | IC50 [3] | IC50 (D(1A) dopamine receptor; cho) | IC50 ([4]; reticulocytes) | IC50 (D(1A) dopamine receptor; read-out: IC50) [µM] | Ki (D(1A) dopamine receptor; read-out: Ki) [µM] | IC50 ([4]; read-out: IC50) [µM] |
| --- | --- | --- | --- | --- | --- | --- | --- | --- | --- | --- | --- |
| CN(CCOc1ccc(C[C@H](Nc2ccccc2C(=O)c2ccccc2)C(=O)O)cc1)c1ccccn1 | Not Active | Not Active | Not Active | Not Active | Not Active | Not Active | Not Active | Not Active | – | – | – |
| Cl.NC[C@H]1CC[C@H](C(=O)Oc2ccc(CCC(=O)O)cc2)CC1 [CETRAXATE HYDROCHLORIDE] | Not Active | Not Active | Not Active | Not Active | Not Active | Not Active | Not Active | Not Active | – | – | – |
| COc1ccccc1OCCNCC(O)COc1cccc2[nH]c3ccccc3c12 (stereo unspecified) [CARVEDILOL] | Not Active | Not Active | Not Active | Not Active | Not Active | Not Active | – | Not Active | 1.5 | 0.749 | – |
| C[C@H](C(=O)O)c1ccc2oc(-c3ccc(F)cc3)nc2c1 [FLUNOXAPROFEN] | Not Active | Not Active | Not Active | Not Active | Not Active | Not Active | Not Active | Not Active | – | – | – |
| CCN1CCN(c2cc3c(cc2F)c(=O)c(C(=O)O)cn3C2CC2)CC1 [ENROFLOXACIN] | Not Active | Not Active | Not Active | Not Active | Not Active | Not Active | Not Active | Not Active | – | – | – |
| C[C@]12CC[C@@H](O)C[C@@H]1CC[C@@H]1[C@@H]2CC[C@]2(C)C(=O)CC[C@@H]12 [ANDROSTERONE] | Not Active | Not Active | Not Active | Not Active | Not Active | Not Active | Not Active | Not Active | – | – | – |
| O=C(NCCN1CCOCC1)c1ccc(Cl)cc1 [MOCLOBEMIDE] | Not Active | Not Active | Not Active | Not Active | Not Active | Not Active | Not Active | Not Active | – | – | – |
| NC(=O)CN1CCCC1=O | Not Active | Not Active | Not Active | Not Active | Not Active | Not Active | Not Active | Not Active | – | – | – |
| Oc1ccccc1 [PHENOL] | Not Active | Not Active | Not Active | Not Active | Not Active | Not Active | Not Active | Not Active | – | – | – |
| CCO [ALCOHOL] | Not Active | Not Active | Not Active | Not Active | Not Active | Not Active | Not Active | Not Active | – | – | – |
| COc1ccc(Cl)cc1C(=O)NCCc1ccc(S(=O)(=O)NC(=O)NC2CCCCC2)cc1 [GLYBURIDE] | Not Active | Not Active | Not Active | Not Active | Not Active | Not Active | Not Active | Not Active | – | – | – |
| OC[C@H]1O[C@@H]2O[C@H]3[C@H](O)[C@@H](O)[C@@H](O[C@H]4[C@H](O)[C@@H](O)[C@@H](O[C@H]5[C@H](O)[C@@H](O)[C@@H](O[C@H]6[C@H](O)[C@@H](O)[C@@H](O[C@H]7[C@H](O)[C@@H](O)[C@@H](O[C@H]8[C@H](O)[C@@H](O)[C@@H](O[C@H]1[C@H](O)[C@H]2O)O[C@@H]8CO)O[C@@H]7CO)O[C@@H]6CO)O[C@@H]5CO)O[C@@H]4CO)O[C@@H]3CO [BETADEX] | Not Active | Not Active | Not Active | Not Active | Not Active | Not Active | Not Active | Not Active | – | – | – |
| NC(N)=Nc1nc(CSCCC(N)=NS(N)(=O)=O)cs1 [FAMOTIDINE] | Not Active | Not Active | Not Active | Not Active | Not Active | Not Active | Not Active | Not Active | – | – | – |
| COc1cc(NC(C)CCCN)c2ncccc2c1 (stereo unspecified) [PRIMAQUINE] | Not Active | Not Active | Not Active | Not Active | Not Active | Not Active | Not Active | Not Active | – | – | – |
| Cc1c(N)nc([C@H](CC(N)=O)NC[C@H](N)C(N)=O)nc1C(=O)N[C@H](C(=O)N[C@H](C)[C@@H](O)[C@H](C)C(=O)N[C@H](C(=O)NCCc1nc(-c2nc(C(=O)NCCC[S+](C)C)cs2)cs1)[C@@H](C)O)[C@@H](O[C@@H]1O[C@@H](CO)[C@@H](O)[C@H](O)[C@@H]1O[C@H]1O[C@H](CO)[C@@H](O)[C@H](OC(N)=O)[C@@H]1O)c1c[nH]cn1.[Br-] [BLEOMYCIN A2] | Not Active | Not Active | Not Active | Not Active | Not Active | Not Active | Not Active | Not Active | – | – | – |
| c1ccc2c(c1)Nc1ccccc1S2 [PHENOTHIAZINE] | Not Active | Not Active | Not Active | Not Active | Not Active | Not Active | Not Active | – | – | – | 4.64 |
| OC[C@H]1OC2C3[C@@H](CO)OC(O[C@H]4[C@H](O)[C@@H](O)[C@@H](O[C@H]5[C@H](O)[C@@H](O)[C@@H](O[C@H]6[C@H](O)[C@@H](O)[C@@H](O[C@H]7[C@H](O)[C@@H](O)[C@@H](O[C@H]8[C@H](O)[C@@H](O)[C@@H](O[C@H]9[C@H](O)[C@@H](O)C(OC1[C@H](O)[C@H]2O)O[C@@H]9CO)O[C@@H]8CO)O[C@@H]7CO)O[C@@H]6CO)O[C@@H]5CO)O[C@@H]4CO)[C@H](O)[C@H]3O | Not Active | Not Active | Not Active | Not Active | Not Active | Not Active | Not Active | Not Active | – | – | – |
| CC(C)Cc1ccc([C@H](C)C(=O)O)cc1 [DEXIBUPROFEN] | Not Active | Not Active | Not Active | Not Active | Not Active | Not Active | Not Active | Not Active | – | – | – |
| CC(N)Cc1c[nH]c2ccc(OCc3cccs3)cc12 (stereo unspecified) [BW-723C86] | Not Active | Not Active | Not Active | Not Active | Not Active | Not Active | Not Active | Not Active | – | – | – |
| CC(=O)[C@]1(O)Cc2c(O)c3c(c(O)c2[C@@H](O[C@H]2C[C@H](N)[C@H](O)[C@H](C)O2)C1)C(=O)c1ccccc1C3=O [IDARUBICIN] | Not Active | Not Active | Not Active | Not Active | Not Active | Not Active | Not Active | Not Active | – | – | – |
